According to ChEMBL document CHEMBL4387741, “Optimization of novel reversible Bruton's tyrosine kinase inhibitors identified using Tethering-fragment-based screens” (Bioorg Med Chem, 2019):

Assays:
[1] = molecular target: BDNF/NT-3 growth factors receptor (Homo sapiens) (UniProt Q16620); assay: Inhibition of wild-type human partial length TRKB (Q547 to G838 residues) expressed in mammalian expression system at 1 uM by Kinomescan method relative to control
[2] = molecular target: Serine/threonine-protein kinase D3 (Homo sapiens) (UniProt O94806); assay: Inhibition of wild-type human partial length PRKD3 (S543 to E863 residues) expressed in bacterial expression system at 1 uM by Kinomescan method relative to control
[3] = molecular target: Serine/threonine-protein kinase N2 (Homo sapiens) (UniProt Q16513); assay: Inhibition of wild-type human partial length PKN2 (E634 to C984 residues) expressed in bacterial expression system at 1 uM by Kinomescan method relative to control
[4] = molecular target: Tyrosine-protein kinase Fes/Fps (Homo sapiens) (UniProt P07332); assay: Inhibition of wild-type human partial length FES (I527 to R822 residues) expressed in bacterial expression system at 1 uM by Kinomescan method relative to control
[5] = molecular target: Casein kinase I isoform gamma-2 (Homo sapiens) (UniProt P78368); assay: Inhibition of wild-type human full length CSNK1G2 (M1 to K415 residues) expressed in bacterial expression system at 1 uM by Kinomescan method relative to control
[6] = molecular target: Serine/threonine-protein kinase 10 (Homo sapiens) (UniProt O94804); assay: Inhibition of wild-type human partial length LOK (E16 to V314 residues) expressed in bacterial expression system at 1 uM by Kinomescan method relative to control
[7] = molecular target: Serine/threonine-protein kinase pim-1 (Homo sapiens) (UniProt P11309); assay: Inhibition of wild-type human partial length PIM1 (A15 to K313 residues) expressed in bacterial expression system at 1 uM by Kinomescan method relative to control
[8] = molecular target: Interleukin-1 receptor-associated kinase 3 (Homo sapiens) (UniProt Q9Y616); assay: Inhibition of wild-type human partial length IRAK3 (V147 to E596 residues) expressed in bacterial expression system at 1 uM by Kinomescan method relative to control
[9] = molecular target: Serine/threonine-protein kinase WNK2 (Homo sapiens) (UniProt Q9Y3S1); assay: Inhibition of wild-type human partial length WNK2 (V47 to D482 residues) expressed in mammalian expression system at 1 uM by Kinomescan method relative to control
[10] = molecular target: Serine/threonine-protein kinase DCLK2 (Homo sapiens) (UniProt Q8N568); assay: Inhibition of wild-type human partial length DCAMKL2 (K273 to V664 residues) expressed in bacterial expression system at 1 uM by Kinomescan method relative to control
[11] = molecular target: Transient receptor potential cation channel subfamily M member 6 (Homo sapiens) (UniProt Q9BX84); assay: Inhibition of wild-type human partial length TRPM6 (Q1723 to I1998 residues) expressed in mammalian expression system at 1 uM by Kinomescan method relative to control
[12] = molecular target: Serine/threonine-protein kinase 32C (Homo sapiens) (UniProt Q86UX6); assay: Inhibition of wild-type human partial length YANK3 (M68 to G486 residues) expressed in bacterial expression system at 1 uM by Kinomescan method relative to control
[13] = molecular target: Beta-adrenergic receptor kinase 1 (Homo sapiens) (UniProt P25098); assay: Inhibition of wild-type human full length GRK2 (M1 to L689 residues) expressed in mammalian expression system at 1 uM by Kinomescan method relative to control
[14] = molecular target: Serine/threonine-protein kinase 38 (Homo sapiens) (UniProt Q15208); assay: Inhibition of wild-type human partial length NDR1 (N33 to E449 residues) expressed in mammalian expression system at 10 uM by Kinomescan method relative to control
[15] = tested on: Mast/stem cell growth factor receptor Kit (Homo sapiens), P10721 [UNDEFINED MUTATION]; assay: Inhibition of human partial length KIT V559D/V654 double mutant (Y545 to D952 residues) expressed in bacterial expression system at 10 uM by Kinomescan method relative to control
[16] = molecular target: Tyrosine-protein kinase ZAP-70 (Homo sapiens) (UniProt P43403); assay: Inhibition of wild-type human partial length ZAP70 (D20 to G299 residues) expressed in mammalian expression system at 10 uM by Kinomescan method relative to control
[17] = molecular target: Muscle, skeletal receptor tyrosine-protein kinase (Homo sapiens) (UniProt O15146); assay: Inhibition of wild-type human partial length MUSK (M553 to V869 residues) expressed in bacterial expression system at 10 uM by Kinomescan method relative to control
[18] = molecular target: Serine/threonine-protein kinase OSR1 (Homo sapiens) (UniProt O95747); assay: Inhibition of wild-type human full length OSR1 (M1 to S527 residues) expressed in mammalian expression system at 10 uM by Kinomescan method relative to control
[19] = molecular target: Protein kinase C iota type (Homo sapiens) (UniProt P41743); assay: Inhibition of wild-type human partial length PRKCI (H215 to V587 residues) expressed in mammalian expression system at 10 uM by Kinomescan method relative to control
[20] = molecular target: Phosphorylase b kinase gamma catalytic chain, skeletal muscle/heart isoform (Homo sapiens) (UniProt Q16816); assay: Inhibition of wild-type human full length PHKG1 (M1 to Y387 residues) expressed in bacterial expression system at 10 uM by Kinomescan method relative to control
[21] = molecular target: Mitogen-activated protein kinase 8 (Homo sapiens) (UniProt P45983); assay: Inhibition of wild-type human full length JNK1 (M1 to Q384 residues) expressed in mammalian expression system at 10 uM by Kinomescan method relative to control
[22] = molecular target: Serine/threonine-protein kinase 3 (Homo sapiens) (UniProt Q13188); assay: Inhibition of wild-type human partial length MST2 (D17 to E318 residues) expressed in bacterial expression system at 10 uM by Kinomescan method relative to control
[23] = molecular target: Aurora kinase B (Homo sapiens) (UniProt Q96GD4); assay: Inhibition of wild-type human partial length AURKB (D25 to A303 residues) expressed in mammalian expression system at 10 uM by Kinomescan method relative to control
[24] = molecular target: Cyclin-dependent kinase 19 (Homo sapiens) (UniProt Q9BWU1); assay: Inhibition of wild-type human partial length CDK11 (M1 to N360 residues) expressed in bacterial expression system at 10 uM by Kinomescan method relative to control
[25] = molecular target: Serine/threonine-protein kinase Nek5 (Homo sapiens) (UniProt Q6P3R8); assay: Inhibition of wild-type human partial length NEK5 (M1 to M279 residues) expressed in bacterial expression system at 10 uM by Kinomescan method relative to control
[26] = molecular target: Ribosomal protein S6 kinase alpha-4 (Homo sapiens) (UniProt O75676); assay: Inhibition of wild-type human partial length C-terminal RPS6KA4 kinase domain 2 (M375 to T705 residues) expressed in mammalian expression system at 10 uM by Kinomescan method relative to control
[27] = molecular target: cAMP-dependent protein kinase catalytic subunit alpha (Homo sapiens) (UniProt P17612); assay: Inhibition of wild-type human partial length PKAC-alpha (G10 to F351 residues) expressed in bacterial expression system at 10 uM by Kinomescan method relative to control

## O=C(Nc1cccc([C@@H]2CN(c3ncnc4[nH]ccc34)CCN2CCO)c1)Nc1c(F)cccc1N1CCCC1
[1]
  inhibition: 100%
[2]
  inhibition: 86%
[3]
  inhibition: 75%
[4]
  inhibition: 100%
[5]
  inhibition: 100%
[6]
  inhibition: 11%
[7]
  inhibition: 86%
[8]
  inhibition: 100%
[9]
  inhibition: 99%
[10]
  inhibition: 99%
[11]
  inhibition: 65%
[12]
  inhibition: 100%
[13]
  inhibition: 96%

## O=C(Nc1cccc([C@H]2CCCN(c3ncnc4[nH]ccc34)C2)c1)Nc1ccccc1N1CCCC1
[14]
  inhibition: 57%
[15]
  inhibition: 26%
[16]
  inhibition: 75%
[17]
  inhibition: 97%
[18]
  inhibition: 81%
[19]
  inhibition: 51%
[20]
  inhibition: 91%
[21]
  inhibition: 42%
[22]
  inhibition: 54%
[23]
  inhibition: 1.1%
[24]
  inhibition: 37%
[25]
  inhibition: 100%
[26]
  inhibition: 44%
[27]
  inhibition: 98%
